Source: PubChem BioAssay (NCI)
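Method: 48-hour compound exposure of cells in 96-well plates, five concentrations, linear interpolation of endpoints. TGI marks complete inhibition of growth.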

Legend:
Experiment in all cases: NCI anticancer screen, dose series, 48 h
[1] = test system: COLO 205 colon
[2] = test system: HCT-15 colon
[3] = test system: K-562 leukemia
[4] = test system: MALME-3M melanoma
[5] = test system: MCF7 breast
[6] = test system: MDA-MB-435
[7] = test system: MDA-N
[8] = test system: NCI-H460 lung
[9] = test system: NCI-H522 lung
[10] = test system: NCI/ADR-RES ovarian
[11] = test system: OVCAR-5 ovarian
[12] = test system: SF-268 CNS
[13] = test system: SK-OV-3 ovarian
[14] = test system: SNB-19 CNS
[15] = test system: SR leukemia
[16] = test system: LOX IMVI melanoma
[17] = test system: OVCAR-3 ovarian
[18] = test system: SK-MEL-28 melanoma

SMILES | TGI [1] | TGI [2] | TGI [3] | TGI [4] | TGI [5] | TGI [6] | TGI [7] | TGI [8] | TGI [9] | TGI [10] | TGI [11] | TGI [12] | TGI [13] | TGI [14] | TGI [15] | TGI [16] | TGI [17] | TGI [18]
Cc1cc(N(C)C)ccc1N=Nc1ccc2ncccc2c1 | > 100 µM | > 100 µM | > 100 µM | > 100 µM | > 100 µM | > 100 µM | > 100 µM | > 100 µM | 62.8 µM | > 100 µM | > 100 µM | > 100 µM | > 100 µM | 94 µM | > 100 µM | – | – | –
CO[C@@H]1C[C@H]2[C@@H]3CC[C@H]([C@@H](C)COC(C)=O)[C@@]3(C)CC[C@@H]2[C@@]2(C)CC[C@H]3C[C@]312 | 20.2 µM | 27 µM | 27.7 µM | 29.4 µM | 23.6 µM | 29.2 µM | 35.4 µM | 23.4 µM | 33.2 µM | 30.4 µM | 23.6 µM | 40.6 µM | – | 31.7 µM | 26.5 µM | 23.6 µM | 27.7 µM | 31.9 µM
O=C(Nn1c(-c2ccccc2)nc2ccccc2c1=O)c1ccc([N+](=O)[O-])cc1 | > 100 µM | > 100 µM | > 100 µM | > 100 µM | > 100 µM | > 100 µM | > 100 µM | > 100 µM | > 100 µM | > 100 µM | > 100 µM | > 100 µM | > 100 µM | > 100 µM | > 100 µM | > 100 µM | > 100 µM | > 100 µM
Cc1ccc([N+](=O)[O-])cc1S(=O)(=O)Nc1ccc(C(=O)/C=C/c2ccccc2)cc1 | 44.9 µM | 48.7 µM | 29.7 µM | 39.5 µM | 26.8 µM | 36.6 µM | 42.8 µM | 37.8 µM | 53 µM | 66.2 µM | 54.7 µM | 73.2 µM | 95 µM | 39.6 µM | 54.7 µM | 36.7 µM | 30.7 µM | 49.6 µM
Oc1c(Nc2ccccc2)cc2c3c1N=NC=3CCN=2 | > 100 µM | > 100 µM | > 100 µM | 29.1 µM | 69 µM | 31 µM | 31.7 µM | > 100 µM | > 100 µM | > 100 µM | > 100 µM | > 100 µM | > 100 µM | > 100 µM | > 100 µM | 46.6 µM | > 100 µM | > 100 µM
CC(C)(C)OC(=O)CCC1NC(=O)[C@@H]2Cc3c([nH]c4ccccc34)C(c3ccccc3)N2C1=O (stereo partly specified) | 43.7 µM | 90.5 µM | > 100 µM | 43.4 µM | > 100 µM | 52.1 µM | 45.7 µM | – | 54.1 µM | 87.6 µM | 70.2 µM | 75.8 µM | > 100 µM | > 100 µM | > 100 µM | 36.3 µM | 48.5 µM | > 100 µM
C/C(CC(O)(C(F)(F)Cl)C(F)(F)Cl)=N\Nc1ccccc1 | > 100 µM | > 100 µM | > 100 µM | > 100 µM | > 100 µM | > 100 µM | > 100 µM | > 100 µM | > 100 µM | > 100 µM | > 100 µM | – | > 100 µM | > 100 µM | > 100 µM | > 100 µM | 48.3 µM | > 100 µM
COc1cc(S(=O)(=O)Nc2ccc(-c3csc(/N=C\c4ccccc4O)n3)cc2)ccc1Cl | > 100 µM | > 100 µM | > 100 µM | > 100 µM | 59.7 µM | > 100 µM | > 100 µM | – | > 100 µM | > 100 µM | > 100 µM | > 100 µM | > 100 µM | > 100 µM | 95.2 µM | > 100 µM | > 100 µM | > 100 µM
CNC(=O)Nn1c(SC)nc2ccccc21 | > 100 µM | > 100 µM | > 100 µM | > 100 µM | > 100 µM | > 100 µM | > 100 µM | > 100 µM | > 100 µM | > 100 µM | > 100 µM | > 100 µM | > 100 µM | > 100 µM | > 100 µM | > 100 µM | – | > 100 µM
COCN1C(=O)[C@@H]2CCCN2C(=O)c2ccc(Cl)cc21 | > 100 µM | > 100 µM | > 100 µM | > 100 µM | > 100 µM | > 100 µM | > 100 µM | > 100 µM | > 100 µM | > 100 µM | > 100 µM | > 100 µM | > 100 µM | > 100 µM | > 100 µM | > 100 µM | – | > 100 µM
c1ccc(C2C3=C(c4ccccc4CC3)N3c4cc5nc6ccccc6nc5cc4NC34CCCCC24)cc1 (stereo unspecified) | > 10 µM | > 10 µM | > 10 µM | > 10 µM | > 10 µM | > 10 µM | > 10 µM | > 10 µM | – | > 10 µM | > 10 µM | > 10 µM | > 10 µM | > 10 µM | 2.05 µM | > 10 µM | > 10 µM | > 10 µM
CCOC(=O)C(=O)N=Nc1c(O)[nH]c2ccccc12 | > 100 µM | > 100 µM | > 100 µM | > 100 µM | > 100 µM | > 100 µM | > 100 µM | > 100 µM | > 100 µM | > 100 µM | > 100 µM | > 100 µM | > 100 µM | > 100 µM | > 100 µM | > 100 µM | – | > 100 µM
COc1ccc(/C=C2\N=C(N3CCOCC3)NC2=O)cc1 | > 100 µM | > 100 µM | – | > 100 µM | > 100 µM | > 100 µM | > 100 µM | – | > 100 µM | > 100 µM | > 100 µM | > 100 µM | > 100 µM | > 100 µM | > 100 µM | > 100 µM | > 100 µM | > 100 µM
CN1CCN(Cn2nc(-c3ccccc3)n(/N=C/c3ccc(-c4ccc(Cl)cc4Cl)o3)c2=S)CC1 | – | 21.2 µM | 24.7 µM | – | 38.6 µM | 46.1 µM | > 100 µM | > 100 µM | > 100 µM | 56.2 µM | 48 µM | 26.2 µM | 27.3 µM | – | 5.04 µM | 46.7 µM | 28.5 µM | 77.8 µM
